Reference: patent publication US11939617B2, “Functionally modified polypeptides and radiobiosynthesis” (Ikaria Inc., priority 2016, dated 2024)

Columns and labels:
[1] = daily subcutaneous injection, 70-100 mg, 1-2 mg/kg; cited from earlier work
HSA = HSA (Homo sapiens, UniProt P02768); experiment: chromatographic assay of HSA binding; conditions: for Kd: chromatographic HSA binding assay (Hage)
Source text: To assess albumin binding, any assay designed to measure albumin binding can be used. Chromatographic binding assays are especially useful, such as that described by Hage, D S, et al. J (Chromatogr B Biomed Sci Appl. 2000, 739:39-54). Alternatively or in conjunction, binding affinity to albumin can be determined by using surface plasmon resonance. In one method, a BIAcore 200 device (BIAcore Inc.; Piscataway, NJ) is used in combination with a procedure by Lacy, S E, et al. (MAbs, 2015. 7:605-19) as modified herein. Briefly, human and mouse albumin are captured on a CM5 chip using amine coupling at 5000 resonance units. The candidate polypeptides are injected at various concentrations (e.g., 0, 0.625, 1.25, 5, and 10 μM) at a controlled flow rate (e.g., 20 μl/min). The bound peptides are allowed to dissociate for a period of time (e.g., 5 min) before matrix regeneration using 10 mM glycine, pH 3. The signal from an injection passing over an uncoupled cell is subtracted from that of an immobilized cell to generate sensorgrams of the amount of polypeptide bound as a function of time. BIAcore kinetic evaluation software (version 3.1) can be used to determine KD from the association and dissociation rates using a one-to-one binding model. Alternatively or in conjunction, affinity to albumin can be determined using a direct assay, such as described by Nguyen, A, et al. (Protein Eng Des Sel. 2006, 19:291-7). In this method, albumin is immobilized onto high protein-binding capacity polystyrene 96 well plates at a predetermined concentration, such as 2 mg/ml, for a period of time (e.g., overnight) at 4° C. Non-specific binding sites are blocked with binding buffer, and radio-labelled candidate polypeptides are applied to the plates for a period of time, such as 30 minutes, at 25° C. Unbound candidate polypeptides are washed away, and bound candidate polypeptides detected using a radioactivity plate reader.
The two non-natural amino acids (nnAAs 1 and 2; FIG. 1) were synthesized from the corresponding NHS-esters by standard conjugation chemistry (FIG. 1). […]

[2] = system: amber nonsense codon in GFPUV-149UAG, PylRS mutant/tRNACUA^Pyl; experiment: amber suppression in GFP by PylRS mutant in E. coli, fluorescence plate reader; assay type: cell-based; conditions: medium with 1 mM nnAA versus control LB medium, best hit from the library
Source text: Since many PylRS mutants have broad substrate specificity, we first screened only a small library of 22 previously evolved PylRS mutants for their ability to incorporate 1 and 2 into green fluorescence protein (GFP) in E coli. The screening was based on the suppression of an amber nonsense codon at a permissive site in a GFP-encoding gene. Briefly, a plasmid, pLei-GFPUV-N149UAG, which contains GFPUV-149UAG and a copy of a tRNACUA^Pyl, was co-transformed into E. coli GeneHogs strain with a plasmid containing a variant of PylRS mutant. Protein expression was carried out in control LB medium and in medium supplemented with 1 mM 1 or 2. After induction of GFP expression and cultivation (12 h), cells were collected, washed, and analyzed using a fluorescence plate reader.

HSA, sequence (P02768 25-609): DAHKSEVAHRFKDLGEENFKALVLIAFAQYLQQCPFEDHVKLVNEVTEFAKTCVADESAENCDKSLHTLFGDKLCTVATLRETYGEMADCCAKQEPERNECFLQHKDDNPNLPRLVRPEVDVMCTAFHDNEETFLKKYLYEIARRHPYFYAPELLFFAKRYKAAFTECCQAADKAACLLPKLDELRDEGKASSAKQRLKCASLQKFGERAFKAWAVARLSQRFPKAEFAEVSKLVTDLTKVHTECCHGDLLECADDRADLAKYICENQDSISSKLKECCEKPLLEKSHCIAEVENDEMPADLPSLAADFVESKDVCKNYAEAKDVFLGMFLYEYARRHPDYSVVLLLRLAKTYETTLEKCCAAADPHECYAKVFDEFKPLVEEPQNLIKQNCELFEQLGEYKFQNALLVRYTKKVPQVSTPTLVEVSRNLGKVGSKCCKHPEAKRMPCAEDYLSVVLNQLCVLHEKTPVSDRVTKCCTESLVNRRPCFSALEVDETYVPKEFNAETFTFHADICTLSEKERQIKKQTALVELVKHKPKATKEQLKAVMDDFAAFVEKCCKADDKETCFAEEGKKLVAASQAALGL

Molecule | time of peak serum concentration after injection [1] | Kd (HSA) | albumin binding (HSA; statement in words) | full-length GFPUV production (fluorescence) [2]
anakinra: 17 kD therapeutic protein currently prescribed for the treatment of rheumatoid arthritis | ~6 h | – | – | –
N[C@@H](CCCCNC(=O)CCCc1ccc(I)cc1)C(=O)O [compound 1] | – | 7 µM | – | –
N[C@@H](CCCCNC(=O)CCc1ccc(I)cc1)C(=O)O [nnAA 2, Nε-(3-(4-iodophenyl)propanoyl)lysine] | – | 204 µM | binds albumin poorly | significantly more full-length GFPUV proteins were produced
